Data from BindingDB's records for patent US10117944 (Madrigal Pharmaceuticals, 2018).

Target: Receptor tyrosine-protein kinase erbB-2 (Homo sapiens, UniProt P04626)
Test: HER2 Degradation Assay with BT-474 Cell Line
Description: HER2 has emerged as a key target for anticancer drugs due to its intrinsic involvement in the phosphatidylinositol-3-kinase-Akt/protein kinase B (PI3 K-Akt) and the mitogen-activated protein kinase (MAPK) pathways, both of which suppress apoptosis and promote tumor cell survival, gene transcription, angiogenesis, cellular proliferation, migration, mitosis, and differentiation. The degradation of HER2 is a measure of efficacy of anticancer therapeutics that target Hsp90. Accordingly, the SDC-TRAP molecules of the invention that comprise a binding moiety that binds Hsp90 were tested in the following HER2 degradation assay.BT-474 cells (human breast cancer cell line ATCC HTB-20) were obtained from ATCC and seeded into 12-well tissue culture plates at 0.2x106/1.8 mL/well. […] Each test compound was titrated in 4-fold dilutions from 5 μM to 78 nM with DMSO and 200 μL of the titration was added to each well of the cell plate. The DMSO final concentration was 0.2%. Cells were incubated overnight at 37° C. in 5% CO2.Media was decanted from the plate, cells were washed 1x in PBS. 400 μL trypsin (EDTA) per well was added, and the cells were incubated for 2 to 3 minutes. […] The cytometer readout was normalized and the potency of each compound was evaluated with IC50 calculated with XLfit software.

Receptor tyrosine-protein kinase erbB-2, sequence (P04626 whole entry): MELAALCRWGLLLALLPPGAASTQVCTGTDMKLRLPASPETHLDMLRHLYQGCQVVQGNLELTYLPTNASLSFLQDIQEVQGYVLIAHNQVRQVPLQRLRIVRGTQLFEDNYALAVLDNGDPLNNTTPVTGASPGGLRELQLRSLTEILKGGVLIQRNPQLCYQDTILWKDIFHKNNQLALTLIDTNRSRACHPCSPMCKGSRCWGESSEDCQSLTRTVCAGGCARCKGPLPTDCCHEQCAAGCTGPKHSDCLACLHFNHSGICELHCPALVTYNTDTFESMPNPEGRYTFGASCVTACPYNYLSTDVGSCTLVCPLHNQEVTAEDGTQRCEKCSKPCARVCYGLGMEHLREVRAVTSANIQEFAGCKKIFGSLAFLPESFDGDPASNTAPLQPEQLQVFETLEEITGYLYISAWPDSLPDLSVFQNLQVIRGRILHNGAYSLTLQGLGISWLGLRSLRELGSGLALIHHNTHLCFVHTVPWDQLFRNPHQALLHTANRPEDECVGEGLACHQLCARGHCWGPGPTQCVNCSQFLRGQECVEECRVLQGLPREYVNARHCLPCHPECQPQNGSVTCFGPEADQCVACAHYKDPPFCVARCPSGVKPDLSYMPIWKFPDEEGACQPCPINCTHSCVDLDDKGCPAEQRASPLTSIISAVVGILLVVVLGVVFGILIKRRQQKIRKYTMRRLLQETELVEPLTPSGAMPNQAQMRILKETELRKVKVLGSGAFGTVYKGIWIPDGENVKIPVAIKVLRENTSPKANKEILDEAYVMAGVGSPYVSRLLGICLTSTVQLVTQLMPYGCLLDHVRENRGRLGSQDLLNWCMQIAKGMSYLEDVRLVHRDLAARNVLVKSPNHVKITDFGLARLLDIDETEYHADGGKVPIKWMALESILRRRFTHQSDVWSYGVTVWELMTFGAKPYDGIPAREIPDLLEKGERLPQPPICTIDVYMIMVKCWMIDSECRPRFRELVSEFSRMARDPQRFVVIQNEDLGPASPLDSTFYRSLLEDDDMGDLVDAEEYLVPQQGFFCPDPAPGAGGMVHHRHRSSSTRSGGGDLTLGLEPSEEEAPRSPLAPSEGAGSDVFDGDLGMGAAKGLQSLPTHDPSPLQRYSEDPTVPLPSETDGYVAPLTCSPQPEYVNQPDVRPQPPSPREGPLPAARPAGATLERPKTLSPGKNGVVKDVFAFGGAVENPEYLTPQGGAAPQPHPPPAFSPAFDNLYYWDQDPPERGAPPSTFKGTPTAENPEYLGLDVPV

IC50: 117 nM
SMILES: CC(C)C[C@H](NC(=O)[C@H](Cc1ccccc1)NC(=O)c1cnccn1)B1O[C@H]2C[C@H]3C[C@H](C3(C)C)[C@@]2(CC(=O)N2CCC(CCn3ccc4cc(N(C(=N)c5cc(C(C)C)c(O)cc5O)C(N)=O)ccc43)CC2)O1 [US10117944, Compound SDC-TRAP-0245]
